Data reported in patent US20250368649A1, “TETRAHYDROPYRIDOPYRIMIDINE PAN-KRAS INHIBITORS” (Mirati Therapeutics, Inc., priority 2022, published 2025).

Legend:
KRas Q61H = KRas Q61H (Homo sapiens, UniProt P01116, Q61H); assay: KRas binding assay (TR-FRET displacement), KRas Q61H; conditions: TR-FRET displacement
KRas G12A = KRas G12A (Homo sapiens, UniProt P01116, G12A); type: binding; conditions: TR-FRET displacement, read-out: Binding to KRas (IC50 nM) G12A
KRas G12V = KRas G12V (Homo sapiens, UniProt P01116, G12V); assay: biochemical; conditions: Binding to KRas (IC50 nM) G12V, TR-FRET displacement, KRas G12V
Sequence of KRas G12V (P01116 1-169 isoform P01116-2 G12V): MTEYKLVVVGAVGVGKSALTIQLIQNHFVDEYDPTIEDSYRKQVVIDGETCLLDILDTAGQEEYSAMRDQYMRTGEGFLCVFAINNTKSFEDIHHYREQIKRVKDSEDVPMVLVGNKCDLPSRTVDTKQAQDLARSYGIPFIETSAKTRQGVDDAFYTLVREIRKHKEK

KRas G12D = KRas G12D (Homo sapiens, UniProt P01116, G12D); assay: biochemical; conditions: Binding to KRas (IC50 nM) G12D, TR-FRET displacement, KRas G12D
Sequence of KRas G12D (P01116 1-169 isoform P01116-2 G12D): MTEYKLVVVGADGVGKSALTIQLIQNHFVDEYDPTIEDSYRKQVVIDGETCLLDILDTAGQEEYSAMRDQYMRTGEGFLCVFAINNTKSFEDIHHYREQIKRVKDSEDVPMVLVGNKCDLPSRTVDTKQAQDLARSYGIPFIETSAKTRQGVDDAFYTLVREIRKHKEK

KRas G12C = KRas G12C (Homo sapiens, UniProt P01116, G12C); type: binding; conditions: TR-FRET displacement, read-out: Binding to KRas (IC50 nM) G12C
Sequence of KRas G12C (P01116 1-169 isoform P01116-2 G12C): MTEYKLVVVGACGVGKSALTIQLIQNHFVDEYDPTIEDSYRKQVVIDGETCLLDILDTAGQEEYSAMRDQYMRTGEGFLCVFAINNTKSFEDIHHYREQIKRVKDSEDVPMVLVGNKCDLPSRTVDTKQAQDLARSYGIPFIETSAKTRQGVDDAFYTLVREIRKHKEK

KRas WT = KRas WT (Homo sapiens, UniProt P01116); assay: KRas binding assay (TR-FRET displacement), KRas WT; conditions: TR-FRET displacement
Sequence of KRas WT (P01116 1-169 isoform P01116-2): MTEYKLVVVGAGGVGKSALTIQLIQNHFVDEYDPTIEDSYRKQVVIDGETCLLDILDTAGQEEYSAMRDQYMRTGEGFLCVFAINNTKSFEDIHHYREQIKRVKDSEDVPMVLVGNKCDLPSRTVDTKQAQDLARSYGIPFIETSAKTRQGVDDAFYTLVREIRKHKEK

KRas G12S = KRas G12S (Homo sapiens, UniProt P01116, G12S); type: binding; conditions: TR-FRET displacement, read-out: Binding to KRas (IC50 nM) G12S
Sequence of KRas G12S (P01116 1-169 isoform P01116-2 G12S): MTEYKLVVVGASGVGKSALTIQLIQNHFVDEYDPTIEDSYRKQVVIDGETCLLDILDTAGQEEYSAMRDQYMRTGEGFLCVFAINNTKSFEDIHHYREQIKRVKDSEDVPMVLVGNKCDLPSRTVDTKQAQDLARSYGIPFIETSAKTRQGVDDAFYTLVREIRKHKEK

KRas G13D = KRas G13D (Homo sapiens, UniProt P01116, G13D); type: binding; conditions: TR-FRET displacement, read-out: Binding to KRas (IC50 nM) G13D
Sequence of KRas G13D (P01116 1-169 isoform P01116-2 G13D): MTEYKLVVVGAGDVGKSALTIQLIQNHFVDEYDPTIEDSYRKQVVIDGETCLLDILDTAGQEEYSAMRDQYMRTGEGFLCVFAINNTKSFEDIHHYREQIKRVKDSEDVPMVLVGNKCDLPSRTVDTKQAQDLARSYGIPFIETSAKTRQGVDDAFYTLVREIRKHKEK

Sequence of KRas G12A (P01116 1-169 isoform P01116-2 G12A): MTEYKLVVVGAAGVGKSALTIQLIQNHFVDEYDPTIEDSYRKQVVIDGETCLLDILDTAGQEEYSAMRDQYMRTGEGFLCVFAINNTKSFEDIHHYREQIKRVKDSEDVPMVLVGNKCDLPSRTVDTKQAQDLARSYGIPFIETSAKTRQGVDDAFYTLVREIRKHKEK
Sequence of KRas Q61H (P01116 1-169 isoform P01116-2 Q61H): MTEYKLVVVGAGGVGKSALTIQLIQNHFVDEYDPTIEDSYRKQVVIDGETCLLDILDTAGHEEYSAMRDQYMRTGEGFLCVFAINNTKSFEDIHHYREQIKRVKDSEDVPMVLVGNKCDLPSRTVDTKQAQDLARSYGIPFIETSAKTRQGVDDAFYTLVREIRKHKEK

Compound | IC50 (KRas Q61H) [nM] | IC50 (KRas G12A) [nM] | IC50 (KRas G12V) [nM] | IC50 (KRas G12D) [nM] | IC50 (KRas G12C) [nM] | IC50 (KRas WT) [nM] | IC50 (KRas G12S) [nM] | IC50 (KRas G13D) [nM]
CCc1cccc2cccc(N3CCc4c(nc(OCC5(CN(C)C)CC5)nc4N4CCN(C(=O)c5c[nH]c(=O)[nH]5)CC4)C3)c12 [Example 536, 4-(4-(2-((1-((dimethylamino)methyl)cyclopropyl)methoxy)-7-(8-ethylnaphthalen-1-yl)-5,6,7,8-tetrahydropyrido[3,4-d]pyrimidin-4-yl)piperazine-1-carbonyl)-1,3-dihydro-2H-imidazol-2-one] | 2170 | 4690 | 3020 | 7950 | 4650 | 3050 | 7720 | 3080
CCc1cccc2cccc(N3CCc4c(nc(OCC5(CN(C)C)CC5)nc4N(C)Cc4nnnn4C)C3)c12 [Example 537, 2-((1-((dimethylamino)methyl)cyclopropyl)methoxy)-7-(8-ethylnaphthalen-1-yl)-N-methyl-N-((1-methyl-1H-tetrazol-5-yl)methyl)-5,6,7,8-tetrahydropyrido[3,4-d]pyrimidin-4-amine] | > 100000 | 43500 | 3180 | 8520 | 3700 | 26700 | 5660 | > 100000
CCc1cccc2cccc(N3CCc4c(nc(OCC5(CN(C)C)CC5)nc4N(C)Cc4nnc5n4CCOC5)C3)c12 [Example 538, N-((5,6-dihydro-8H-[1,2,4]triazolo[3,4-c][1,4]oxazin-3-yl)methyl)-2-((1-((dimethylamino)methyl)cyclopropyl)methoxy)-7-(8-ethylnaphthalen-1-yl)-N-methyl-5,6,7,8-tetrahydropyrido[3,4-d]pyrimidin-4-amine] | 4350 | 2530 | 1860 | 9040 | 1330 | 3000 | 2780 | 4360
CCc1cccc2cccc(N3CCc4c(nc(OCC5(CN(C)C)CC5)nc4N4CC(CO)OC(C(F)(F)F)C4)C3)c12 (stereo not drawn) [Example 540, (4-(2-((1-((dimethylamino)methyl)cyclopropyl)methoxy)-7-(8-ethylnaphthalen-1-yl)-5,6,7,8-tetrahydropyrido[3,4-d]pyrimidin-4-yl)-6-(trifluoromethyl)morpholin-2-yl)methanol] | 7730 | 3280 | 1720 | 9350 | 1840 | 5810 | 3750 | 8850
CCc1cccc2cccc(N3CCc4c(nc(OCC5(CN(C)C)CC5)nc4N4CCOC(C(F)F)CC4)C3)c12 (stereo not drawn) [Example 544, 1-(1-(((4-(7-(difluoromethyl)-1,4-oxazepan-4-yl)-7-(8-ethylnaphthalen-1-yl)-5,6,7,8-tetrahydropyrido[3,4-d]pyrimidin-2-yl)oxy)methyl)cyclopropyl)-N,N-dimethylmethanamine] | 121 | 291 | 14500 | 21100 | 180 | 327 | 204 | 112
CCc1cccc2cccc(N3CCc4c(nc(OCC5(CN(C)C)CC5)nc4N4CCCC(c5n[nH]cc5NC(C)=O)C4)C3)c12 (stereo not drawn) [Example 545, N-(3-(1-(2-((1-((dimethylamino)methyl)cyclopropyl)methoxy)-7-(8-ethylnaphthalen-1-yl)-5,6,7,8-tetrahydropyrido[3,4-d]pyrimidin-4-yl)piperidin-3-yl)-1H-pyrazol-4-yl)acetamide] | 5900 | 4750 | 6080 | 13100 | 4780 | 7230 | 5000 | 8090
CCc1cccc2cccc(N3CCc4c(nc(OCC5(CN(C)C)CC5)nc4N4CCOC(CNC(=O)NC)C4)C3)c12 (stereo not drawn) [Example 546, 1-((4-(2-((1-((dimethylamino)methyl)cyclopropyl)methoxy)-7-(8-ethylnaphthalen-1-yl)-5,6,7,8-tetrahydropyrido[3,4-d]pyrimidin-4-yl)morpholin-2-yl)methyl)-3-methylurea] | 3310 | 3800 | 4640 | 13600 | 2630 | 2640 | 3570 | 4620
CCc1cccc2cccc(N3CCc4c(nc(OCC5(CN(C)C)CC5)nc4NCCC4CC(C)(C)NC4=O)C3)c12 (stereo not drawn) [Example 547, 3-(2-((2-((1-((dimethylamino)methyl)cyclopropyl)methoxy)-7-(8-ethylnaphthalen-1-yl)-5,6,7,8-tetrahydropyrido[3,4-d]pyrimidin-4-yl)amino)ethyl)-5,5-dimethylpyrrolidin-2-one] | 784 | 798 | 2320 | 15900 | 622 | 667 | 707 | 680
CCc1cccc2cccc(N3CCc4c(nc(OCC5(CN(C)C)CC5)nc4N(C)Cc4nncn4C(C)C)C3)c12 [Example 549, 2-((1-((dimethylamino)methyl)cyclopropyl)methoxy)-7-(8-ethylnaphthalen-1-yl)-N-((4-isopropyl-4H-1,2,4-triazol-3-yl)methyl)-N-methyl-5,6,7,8-tetrahydropyrido[3,4-d]pyrimidin-4-amine] | 2540 | 1670 | 1980 | 17400 | 946 | 1910 | 1360 | 2110
CCc1cccc2cccc(N3CCc4c(nc(OCC5(CN(C)C)CC5)nc4NCc4nnn(C(C)(C)C)n4)C3)c12 [Example 550, N-((2-(tert-butyl)-2H-tetrazol-5-yl)methyl)-2-((1-((dimethylamino)methyl)cyclopropyl)methoxy)-7-(8-ethylnaphthalen-1-yl)-5,6,7,8-tetrahydropyrido[3,4-d]pyrimidin-4-amine] | 27100 | 33600 | 8180 | 17600 | 16300 | 32400 | 28800 | 35300

More lines, in order of falling IC50 (KRas Q61H), values ahead:

IC50 (KRas Q61H) [nM] | IC50 (KRas G12A) [nM] | IC50 (KRas G12V) [nM] | IC50 (KRas G12D) [nM] | IC50 (KRas G12C) [nM] | IC50 (KRas WT) [nM] | IC50 (KRas G12S) [nM] | IC50 (KRas G13D) [nM] | Compound
41300 | 17100 | 5880 | 9320 | 8970 | 19900 | 20700 | 42200 | CCc1cccc2cccc(N3CCc4c(nc(OCC5(CN(C)C)CC5)nc4NCc4cc(CO)[nH]n4)C3)c12 [Example 539, (3-(((2-((1-((dimethylamino)methyl)cyclopropyl)methoxy)-7-(8-ethylnaphthalen-1-yl)-5,6,7,8-tetrahydropyrido[3,4-d]pyrimidin-4-yl)amino)methyl)-1H-pyrazol-5-yl)methanol]
18300 | 5740 | 5370 | 11600 | 2890 | 10400 | 5830 | 15800 | CCc1cccc2cccc(N3CCc4c(nc(OCC5(CN(C)C)CC5)nc4NC4CCCc5[nH]ncc54)C3)c12 (stereo not drawn) [Example 542, 2-((1-((dimethylamino)methyl)cyclopropyl)methoxy)-7-(8-ethylnaphthalen-1-yl)-N-(4,5,6,7-tetrahydro-1H-indazol-4-yl)-5,6,7,8-tetrahydropyrido[3,4-d]pyrimidin-4-amine]
11100 | 6790 | 5890 | 16700 | 4120 | 10000 | 8210 | 13900 | CCc1cccc2cccc(N3CCc4c(nc(OCC5(CN(C)C)CC5)nc4N(C)Cc4nnc5n4CC(C(F)(F)F)CC5)C3)c12 (stereo not drawn) [Example 548, 2-((1-((dimethylamino)methyl)cyclopropyl)methoxy)-7-(8-ethylnaphthalen-1-yl)-N-methyl-N-((6-(trifluoromethyl)-5,6,7,8-tetrahydro-[1,2,4]triazolo[4,3-a]pyridin-3-yl)methyl)-5,6,7,8-tetrahydropyrido[3,4-d]pyrimidin-4-amine]
2400 | 1200 | 3940 | 12100 | 634 | 1500 | 750 | 2270 | CCc1cccc2cccc(N3CCc4c(nc(OCC5(CN(C)C)CC5)nc4N4CCC(F)C(OC)C4)C3)c12 (stereo not drawn) [Example 543, 1-(1-(((7-(8-ethylnaphthalen-1-yl)-4-(4-fluoro-3-methoxypiperidin-1-yl)-5,6,7,8-tetrahydropyrido[3,4-d]pyrimidin-2-yl)oxy)methyl)cyclopropyl)-N,N-dimethylmethanamine]
298 | 259 | 5980 | 10000 | 165 | 256 | 169 | 200 | CCc1cccc2cccc(N3CCc4c(nc(OCC5(CN(C)C)CC5)nc4NCc4ccnn4C4CC4(F)F)C3)c12 (stereo not drawn) [Example 541, N-((1-(2,2-difluorocyclopropyl)-1H-pyrazol-5-yl)methyl)-2-((1-((dimethylamino)methyl)cyclopropyl)methoxy)-7-(8-ethylnaphthalen-1-yl)-5,6,7,8-tetrahydropyrido[3,4-d]pyrimidin-4-amine]
